# Data taken from the Kinase Knowledgebase extract (Sharma et al. 2016).
# Molecular target: MAPK14 (human) (UniProt Q16539)
# Assay: Inhibition of MAPK14 Kinase Activity
# MAPK14 (human), sequence (Q16539 whole entry, looked up): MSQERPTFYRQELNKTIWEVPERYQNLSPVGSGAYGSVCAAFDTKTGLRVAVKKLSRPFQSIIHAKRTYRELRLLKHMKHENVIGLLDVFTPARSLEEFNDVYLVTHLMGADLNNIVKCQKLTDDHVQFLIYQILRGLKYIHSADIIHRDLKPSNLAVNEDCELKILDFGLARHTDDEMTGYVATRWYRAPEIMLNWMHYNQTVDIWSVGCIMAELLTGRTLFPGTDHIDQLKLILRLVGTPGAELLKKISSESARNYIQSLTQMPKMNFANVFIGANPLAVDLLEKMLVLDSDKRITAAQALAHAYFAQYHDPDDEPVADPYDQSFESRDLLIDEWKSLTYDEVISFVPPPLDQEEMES
row,SMILES,IC50 [nM]
1,Cc1nc(-c2ccc(F)cc2)c(-c2nc(C(=O)NCc3ccccn3)cs2)s1,≤ 1000
2,CC(C)NC(=O)c1csc(-c2c(-c3ccc(F)cc3)n[nH]c2C2CCN(C(=O)c3cc(O)ccc3[N+](=O)[O-])CC2)n1,≤ 1000
3,Cc1nc(-c2ccc(F)cc2)c(-c2nc(C(=O)NCC(C)c3ccccc3)cs2)s1 (stereo not drawn),≤ 1000
4,COc1ccc(C=CC(=O)NCc2nc(-c3ccc(F)cc3)c(-c3nc(C(=O)NC(C)C)cs3)o2)cc1O,≤ 1000
5,CC(=O)c1ccccc1C(=O)N1CCN(Cc2nc(-c3ccc(F)cc3)c(-c3nc(C(=O)NC(C)C)cs3)o2)CC1,≤ 1000
6,Cc1nc(-c2ccc(F)cc2)c(-c2nc(C(=O)N[C@@H](C)c3ccccc3)cs2)s1,≤ 1000
7,COCc1onc(-c2ccc(Cl)cc2)c1-c1ccn(C(=O)NC(C)C)n1,≤ 1000
8,CC(C)NC(=O)c1csc(-c2oc(CNC(=O)c3cc(O)c(O)c(O)c3)nc2-c2ccc(F)cc2)n1,≤ 1000
9,CC(C)NC(=O)c1csc(-c2oc(CN3CCN(C(=O)C(F)(F)F)CC3)nc2-c2ccc(F)cc2)n1,≤ 1000
10,CC(C)NC(=O)c1csc(-c2oc(CN3CCN(C(=O)c4ccc(OC(C)C)cc4)CC3)nc2-c2ccc(F)cc2)n1,≤ 1000
11,CC(C)NC(=O)c1csc(-c2c(-c3ccc(F)cc3)n[nH]c2C2CCN(C(=O)c3cscn3)CC2)n1,≤ 1000
12,Cc1nc(-c2ccc(F)cc2)c(-c2nc(C(=O)Nc3cnc4ccccc4c3)cs2)s1,≤ 1000
13,CC(C)NC(=O)c1csc(-c2c(-c3ccc(F)cc3)n[nH]c2C2CCN(C(=O)c3cc(Cl)ccn3)CC2)n1,≤ 1000
14,CC(C)NC(=O)c1csc(-c2c(-c3ccc(F)cc3)n[nH]c2C2CCN(C(=O)C(O)CCl)CC2)n1 (stereo not drawn),≤ 1000
15,Cc1cccc([N+](=O)[O-])c1C(=O)NCc1nc(-c2ccc(F)cc2)c(-c2nc(C(=O)NC(C)C)cs2)o1,≤ 1000
16,COc1ccncc1NC(=O)c1csc(-c2sc(C)nc2-c2ccc(F)cc2)n1,≤ 1000
17,CCC(C)NC(=O)c1csc(-c2c(-c3ccc(F)cc3)n[nH]c2C2CCNCC2)n1 (stereo not drawn),≤ 1000
18,CC(C)NC(=O)c1csc(-c2c(-c3ccc(F)cc3)n[nH]c2C2CCN(C(=O)c3cccnc3Cl)CC2)n1,≤ 1000
19,Cc1nc(-c2ccc(F)cc2)c(-c2nc(C(=O)NCc3ccccc3Cl)cs2)s1,≤ 1000
20,O=C(NC1CCCC1)c1csc(-c2c(-c3ccc(F)cc3)ncn2C2CCNCC2)n1,≤ 1000
21,CC(C)NC(=O)c1csc(-c2oc(CNC(=O)c3cnc(O)c(Cl)c3)nc2-c2ccc(F)cc2)n1,≤ 1000

row,SMILES,IC50 [nM]
1,CC(C)NC(=O)c1csc(-c2oc(CNC(=O)CCc3cccc(C(F)(F)F)c3)nc2-c2ccc(F)cc2)n1,≤ 1000
2,CC(C)NC(=O)c1csc(-c2oc(CN3CCN(C(=O)c4cc(Cl)ccc4O)CC3)nc2-c2ccc(F)cc2)n1,≤ 1000
3,COc1cc2c(cc1OC)CN(C(=O)c1csc(-c3sc(C)nc3-c3ccc(F)cc3)n1)CC2,≤ 1000
4,Cc1nc(-c2ccc(F)cc2)c(-c2nc(C(=O)NCCc3cccc(F)c3)cs2)s1,≤ 1000
5,CC(C)NC(=O)c1csc(-c2oc(CNC(=O)c3cc(F)ccc3[N+](=O)[O-])nc2-c2ccc(F)cc2)n1,≤ 1000
6,CCN(CC)c1ccc(C(=O)N2CCN(Cc3nc(-c4ccc(F)cc4)c(-c4nc(C(=O)NC(C)C)cs4)o3)CC2)cc1,≤ 1000
7,CC(C)NC(=O)c1csc(-c2oc(CN3CCN(C(=O)c4cnc[nH]4)CC3)nc2-c2ccc(F)cc2)n1,≤ 1000
8,CCC(CO)NC(=O)c1csc(-c2sc(C)nc2-c2ccc(F)cc2)n1 (stereo not drawn),≤ 1000
9,CC(C)NC(=O)c1csc(-c2c(-c3ccc(F)cc3)noc2CNC(=O)c2ccncc2Cl)n1,≤ 1000
10,CC(C)NC(=O)c1csc(-c2oc(CNC(=O)Cc3ccc(O)c(F)c3)nc2-c2ccc(F)cc2)n1,≤ 1000
11,CCN(Cc1onc(-c2ccc(F)cc2)c1-c1nc(C(=O)NC(C)C)cs1)C(Cc1ccccc1)c1ccco1 (stereo not drawn),≤ 1000
12,CC(C)NC(=O)n1ccc(-c2c(-c3ccc(F)cc3)noc2CN(C)C)n1,≤ 1000
13,CC(C)NC(=O)c1csc(-c2oc(CNC(=O)c3cncc(Br)c3)nc2-c2ccc(F)cc2)n1,≤ 1000
14,Cc1nc(-c2ccc(F)cc2)c(-c2nc(C(=O)NC3CCCCCC3)cs2)s1,≤ 1000
15,COc1ccc(CNC(=O)c2csc(-c3c(-c4ccc(F)cc4)n[nH]c3C3CCNCC3)n2)cc1O,≤ 1000
16,COc1ccc(C=CC(=O)N2CCN(Cc3nc(-c4ccc(F)cc4)c(-c4nc(C(=O)NC(C)C)cs4)o3)CC2)cc1O,≤ 1000
17,Cc1nc(-c2ccc(F)cc2)c(-c2nc(C(=O)NC(C)CO)cs2)s1 (stereo not drawn),≤ 1000
18,Cc1cnc(CNC(=O)c2csc(-c3sc(C)nc3-c3ccc(F)cc3)n2)cn1,≤ 1000
19,CCOc1ccc2ccccc2c1C(=O)N1CCN(Cc2nc(-c3ccc(F)cc3)c(-c3nc(C(=O)NC(C)C)cs3)o2)CC1,≤ 1000
20,CC(=O)Nc1cccc(C(=O)N2CCN(Cc3nc(-c4ccc(F)cc4)c(-c4nc(C(=O)NC(C)C)cs4)o3)CC2)c1,≤ 1000
21,Cc1nc(-c2ccc(F)cc2)c(-c2nc(C(=O)NCCCNC(=O)OC(C)(C)C)cs2)s1,≤ 1000

# More lines, now with the values ahead:
row,IC50 [nM],SMILES
1,≤ 1000,COC(=O)N1CCC(c2[nH]nc(-c3ccc(F)cc3)c2-c2nc(C(=O)NC(C)C)cs2)CC1
2,≤ 1000,CC(C)NC(=O)c1csc(-c2oc(CNC(=O)c3ccc([N+](=O)[O-])cc3Cl)nc2-c2ccc(F)cc2)n1
3,≤ 1000,CC(=O)N1CCC(c2[nH]nc(-c3ccc(F)cc3)c2-c2nc(C(=O)NC(C)C)cs2)CC1
4,≤ 1000,CC(C)NC(=O)c1csc(-c2oc(CNC(=O)c3ccc(F)cc3F)nc2-c2ccc(F)cc2)n1
5,≤ 1000,CC(C)NC(=O)c1csc(-c2oc(CNC(=O)c3ccc(F)c([N+](=O)[O-])c3)nc2-c2ccc(F)cc2)n1
6,≤ 1000,Cc1ccc([N+](=O)[O-])c(C(=O)NCc2onc(-c3ccc(F)cc3)c2-c2nc(C(=O)NC(C)C)cs2)c1
7,≤ 1000,CC(C)NC(=O)c1csc(-c2c(-c3ccc(F)cc3)noc2CNCCCN2CCCC2=O)n1
8,≤ 1000,CC(=O)c1cccc(NC(=O)c2csc(-c3sc(C)nc3-c3ccc(F)cc3)n2)c1
9,≤ 1000,CC(C)NC(=O)c1csc(-c2c(-c3ccc(F)cc3)n[nH]c2C2CCN(C(=O)CO)CC2)n1
10,≤ 1000,Cc1nc(-c2ccc(F)cc2)c(-c2nc(C(=O)NCCc3ccc(Cl)cc3)cs2)s1
11,≤ 1000,CC(C)NC(=O)c1csc(-c2c(-c3ccc(F)cc3)n[nH]c2C2CCN(C(=O)c3ccncc3Cl)CC2)n1
12,≤ 1000,COc1cc(CN(C)C(=O)c2csc(-c3sc(C)nc3-c3ccc(F)cc3)n2)cc(OC)c1OC
13,≤ 1000,CCOC(=O)CC(=O)NCc1nc(-c2ccc(F)cc2)c(-c2nc(C(=O)NC(C)C)cs2)o1
14,≤ 1000,C#CCNC(=O)c1csc(-c2[nH]c(CN3CCNCC3)nc2-c2ccc(F)cc2)n1
15,≤ 1000,CC(C)NC(=O)c1csc(-c2oc(CN3CCN(C(=O)c4ccccc4O)CC3)nc2-c2ccc(F)cc2)n1
16,≤ 1000,CC(C)NC(=O)c1csc(-c2oc(CNC(=O)c3cc(F)c(F)cc3Cl)nc2-c2ccc(F)cc2)n1
17,≤ 1000,Cc1nc(-c2ccc(F)cc2)c(-c2nc(C(=O)NCc3ccccc3OC(F)(F)F)cs2)s1
18,≤ 1000,O=C(NC1CC1)c1csc(-c2c(-c3ccc(F)cc3)n[nH]c2C2CCNCC2)n1
19,≤ 1000,O=C(NC1CCCCC1)c1csc(-c2c(-c3ccc(F)cc3)ncn2C2CCNCC2)n1
20,≤ 1000,CC(C)NC(=O)c1csc(-c2c(-c3ccc(F)cc3)n[nH]c2C2CCN(C(=O)c3cccc4ccccc34)CC2)n1
21,≤ 1000,CC(C)NC(=O)c1csc(-c2oc(CN3CCN(C(=O)c4ccccc4Cc4ccccc4)CC3)nc2-c2ccc(F)cc2)n1
22,≤ 1000,CC(C)NC(=O)c1csc(-c2oc(CNC(=O)c3cscn3)nc2-c2ccc(F)cc2)n1
23,≤ 1000,Cc1[nH]nc(-c2ccc(F)cc2)c1-c1nc(C(=O)NCc2ccncc2)cs1

row,IC50 [nM],SMILES
1,≤ 1000,CC(C)NC(=O)c1coc(-c2c(-c3ccc(F)cc3)noc2C2CCNCC2)n1
2,≤ 1000,CC(C)NC(=O)c1csc(-c2c(-c3ccc(F)cc3)n[nH]c2C2CCN(C(=O)C(C)(C)C)CC2)n1
3,≤ 1000,CC(C)NC(=O)c1csc(-c2oc(CN3CCN(C(=O)c4cc([N+](=O)[O-])ccc4O)CC3)nc2-c2ccc(F)cc2)n1
4,≤ 1000,Cc1onc(-c2ccc(Cl)cc2)c1-c1cc(C)n(C(=O)NC(C)C)n1
5,≤ 1000,CCOC(=O)CC(=O)N1CCC(c2[nH]nc(-c3ccc(F)cc3)c2-c2nc(C(=O)NC(C)C)cs2)CC1
6,≤ 1000,CC(=O)Oc1ccccc1C(=O)NCc1onc(-c2ccc(F)cc2)c1-c1nc(C(=O)NC(C)C)cs1
7,≤ 1000,Cc1nc(-c2ccc(F)cc2)c(-c2nc(C(=O)NC(C)C)cs2)o1
8,≤ 1000,Cc1nc(-c2ccc(F)cc2)c(-c2nc(C(=O)NCc3cccc(F)c3)cs2)s1
9,≤ 1000,CC(C)NC(=O)c1csc(-c2oc(CN3CCN(C(=O)C(Cl)(Cl)Cl)CC3)nc2-c2ccc(F)cc2)n1
10,≤ 1000,CCCC(C)NC(=O)c1csc(-c2c(-c3ccc(F)cc3)n[nH]c2C2CCNCC2)n1 (stereo not drawn)
11,≤ 1000,CC(C)NC(=O)c1csc(-c2oc(CNCCc3ccc(S(N)(=O)=O)cc3)nc2-c2ccc(F)cc2)n1
12,≤ 1000,CC(C)NC(=O)c1csc(-c2oc(CN3CCNCC3)nc2-c2ccc(F)cc2)n1
13,≤ 1000,Cc1nc(-c2ccc(F)cc2)c(-c2nc(C(=O)NCC3CC3)cs2)s1
14,≤ 1000,CC(C)NC(=O)c1csc(-c2[nH]c(N)nc2-c2ccc(F)cc2)n1
15,≤ 1000,CC(C)NC(=O)c1csc(-c2c(-c3ccc(F)cc3)noc2CNC(=O)C(O)CCl)n1 (stereo not drawn)
16,≤ 1000,CC(C)NC(=O)c1csc(-c2oc(CNC(=O)c3ccc4ncccc4c3)nc2-c2ccc(F)cc2)n1
17,≤ 1000,Cc1nc(-c2ccc(F)cc2)c(-c2nc(C(=O)NCCN3CCCC3)cs2)s1
18,≤ 1000,CC(C)NC(=O)c1csc(-c2oc(CNC(=O)Cc3c(F)cccc3F)nc2-c2ccc(F)cc2)n1
19,≤ 1000,CC(C)NC(=O)c1csc(-c2c(-c3ccc(F)cc3)noc2CN(C)CCc2ccccn2)n1
20,≤ 1000,CC(C)NC(=O)c1csc(-c2oc(CNCCC(C)(C)C)nc2-c2ccc(F)cc2)n1
21,≤ 1000,CC(=O)Nc1cccc(C(=O)N2CCC(c3[nH]nc(-c4ccc(F)cc4)c3-c3nc(C(=O)NC(C)C)cs3)CC2)c1
22,≤ 1000,CC(C)NC(=O)c1csc(-c2oc(CNC(C)C(C)C)nc2C2=CC=C(F)OC2)n1 (stereo not drawn)
23,≤ 1000,CC(C)NC(=O)c1csc(-c2oc(CNCc3ccccn3)nc2-c2ccc(F)cc2)n1
